This note sets out measurements from ChEMBL document CHEMBL1145186, “Extravascular transport of drugs in tumor tissue: effect of lipophilicity on diffusion of tirapazamine analogues in multicellular layer cultures” (J Med Chem, 2005).

A short description of the series: Partition coefficient (logP) of the compound. Type of series: physicochemical.

In the case of `COCCc1cccc(Nc2n[n+]([O-])c3ccccc3[n+]2[O-])c1`, the logP was determined as 1.51. Consider `[O-][n+]1nc(Nc2ccccc2)[n+]([O-])c2ccccc21`, for which the log partition coefficient (logP) came to 1.43. In turn, `Nc1n[n+]([O-])c2cc(Cl)ccc2[n+]1[O-]` gave a logP of 0.441. The same measure for `Cc1cccc2c1[n+]([O-])nc(N)[n+]2[O-]`: 0.24; for `CCN(CC)c1cccc2c1[n+]([O-])nc(N)[n+]2[O-]`: 0.83; for `Cc1ccc2c(c1)[n+]([O-])nc(N)[n+]2[O-]`: 0.127. In turn, `CS(=O)(=O)c1cccc2c1[n+]([O-])nc(N)[n+]2[O-]` returned a logP of -1.38.

For `Nc1n[n+]([O-])c2cccc(Cl)c2[n+]1[O-]`, the logP is -0.102. Take `Nc1n[n+]([O-])c2c(C(F)(F)F)cccc2[n+]1[O-]`: the logP worked out at 0.48. For the compound `Nc1n[n+]([O-])c2cc(C(F)(F)F)ccc2[n+]1[O-]`, the logP stood at 0.82. With `Cc1ccc2c(c1)[n+]([O-])c(N)n[n+]2[O-]`, the logP was found to be 0.068.

As to `CS(=O)(=O)c1ccc2c(c1)[n+]([O-])nc(N)[n+]2[O-]`, the logP was -1.15.

Turning to `Nc1n[n+]([O-])c2c(Cl)cccc2[n+]1[O-]`, the logP amounted to 0.166.

`O=c1c2ccccc2[nH]c2ccccc12` [ACRIDONE]: the logP was 2.98. `OC[C@@H](O)[C@@H](O)[C@H](O)[C@H](O)CO` [MANNITOL] had a logP of -2.62. For `Nc1n[n+]([O-])c2ccccc2[n+]1[O-]` [TIRAPAZAMINE], the lipophilicity (logP) was -0.342. The same measure for `NC(N)=O` [UREA]: -2.01.

As usually defined, the logP is a log measure of how a compound divides between an organic and an aqueous phase.
